Source: patent US20160143910A1, “METHODS OF TREATING CANCER AND PREVENTING CANCER DRUG RESISTANCE” (GENENTECH, INC., priority 2013, published 2016)
Values belong to the compound of their own block, whether it stands above or below them.

Assays:
PC9 cells [1] = experiment: Gamma irradiation of PC9 cells after KDM5 inhibitor pretreatment; assay type: cell-based, human
Procedure: For Gamma irradiation the cells were treated for 5 days with inhibitors replated at 500,000 cells with the inhibitor. After cell attachment (approximately 8 hours), the cells were irradiated, and cells were counted 5 days after irradiation.

H3K4me3 [2] = experiment: H3K4me3 MSD ELISA in PC9; assay type: cell-based, human; conditions: PC9 (NSCLC)
Procedure: (§1) Cells were rinsed with PBS and MSD Buffer AT (10 mM HEPES, pH 7.9, 5 mM MgCl2, 0.25M sucrose, Benzonase (1:10000), 1% Triton X-100 supplemented with fresh 1× Protease Inhibitor cocktail and 1 mM PMSF/AEBSF) was added. Cells were lysed for 30 minutes and then 10 uL 5M NaCl was added and allowed to lyse on ice for another 15 minutes. Lysates were rinse with 150 uL ice-cold NO Salt NO detergent buffer (20 mM Tris pH 7.5, 1 mM EDTA, 1 mM EGTA, supplemented with fresh 1× Protease Inhibitor cocktail and 1 mM PMSF).
(§2) MSD plates (Catalog #L15XA-3) were then coated with Capture Antibody Anti-histone (Millipore Catalog # MAB3422) for H3K4me3: 2 ug/mL final concentration and/or plates testing for H3: 1 ug/mL final concentration. MSD plates were then blocked with 5% Blocker A (MSD Catalog #R93AA-2). Lysates to MSD plates were subsequently transferred, sealed and incubated with shaking at RT for 2:30 hours and then incubated with detection antibody in 1% Blocker A in TBST for 30 min (anti-Histone H3 (#4499 from Cell Signaling) at 0.125 ug/mL and/or anti-K4Me3 (#9751 from Cell Signaling) at 1 ug/mL). Sulfo-tag rabbit antibody (MSD Catalog# R32AB-1) in 1% Blocker A in TBST was added and incubated for 1 h at RT. […] 1× Read Buffer (MSD Catalog #R92TD-3) was added and read on MSD SECTOR® Imager 2400. Data was analyzed data using MACRO template provided using samples treated with DMSO as 0% or Min. […]

PC9 cells [3] = experiment: Drug tolerant persister (DTP) assay, PC9 with Tarceva (erlotinib); assay type: cell-based, human; conditions: stained 30 days after
Text: […] Viable cells remaining attached on the dish at the end of the third round of relevant drug treatment were considered to be DTPs, and were collected for analysis.
(§3) The structures of CPI-382 and CPI-383 are provided below.

SKBR3 [4] = experiment: Cell number with KDM5 antagonist alone, SKBR3; assay type: cell-based; conditions: after 96 hours in drug, concentrations below 25 uM
Procedure: (§4) 3×10^4 cells were plated in each well of a 12-well cluster dish. 24 hours after plating, media was removed and replaced with media containing drugs. Fresh media was replaced every 2 days until untreated cells reached confluence. Media was then removed, cells were washed with Phosphate Buffered Saline (PBS), and then fixed for 15 min with 4% formaldehyde in PBS. Cells were then washed with PBS and stained with the fluorescent nucleic acid stain, Syto60 (1 nM in PBS; Molecular Probes) for 15 min. Dye was removed, cell monolayers were washed with PBS, and fluorescence quantitation was carried out at 700 nm with an Odyssey Infrared Imager (Li-Cor Biosciences).

H3K4me3 [5] = experiment: H3K4me3 MSD ELISA in H441; assay type: cell-based; conditions: H441 (NSCLC)
Procedure: as §1, §2

PC9 cells [6] = experiment: Cell number with KDM5 antagonist alone, PC9; assay type: cell-based, human; conditions: after 96 hours in drug, concentrations below 50 uM
Procedure: as §4

H3K4me3 [7] = experiment: H3K4me3 MSD ELISA in SKBR3; assay type: cell-based; conditions: SKBR3 (breast cancer)
Procedure: as §1, §2

H441 cells = experiment: Drug tolerant persister (DTP) assay, H441; assay type: cell-based; conditions: in combination with the recited cancer therapy agent
Procedure: Specifically for carboplatin and paclitaxel DTPs, Cells were plated and grown to 60-70% confluency then treated with Carboplatin (5.38 uM) and Paclitaxel (1.25 uM) for 5 cycles of 24 hours on 48 hours off drug. DTPs were collected and analyzed 1 week after the final dose of chemotherapy.
as §3

SKBR3 [8] = experiment: Drug tolerant persister (DTP) assay, SKBR3; assay type: cell-based; conditions: in combination with the recited cancer therapy agent
Procedure: (§5) Drug-sensitive cells were treated with relevant drug as described herein at concentrations exceeding 100 times the established IC50 values, for three rounds, with each treatment lasting 72 hours. Viable cells remaining attached on the dish at the end of the third round of relevant drug treatment were considered to be DTPs, and were collected for analysis.
as §3

HCC1954 = experiment: Drug tolerant persister (DTP) assay, HCC1954; assay type: cell-based; conditions: HCC1954 (breast cancer); in combination with the recited cancer therapy agent
Procedure: as §5, §3

H3K4me3 [9] = experiment: H3K4me3 MSD ELISA in H596; assay type: cell-based; conditions: H596 (lung epithelial adenosquamous carcinoma)
Procedure: as §1, §2

HT144 = experiment: Cell viability assay (cell titer Glo), HT144; assay type: cell-based; conditions: Homo sapiens, HT-144, 96 h; HT144, 4 days of incubation, 8 doses
Procedure: (§6) One goal was to identify a cell line that would be sensitive to vemurafenib and amenable to DTP formation. For this, a set of 18 melanoma cell lines were tested by standard cell viability assay using cell titer Glo readout after 4 days of incubation with 8 different doses of vemurafenib. The results identified 3 melanoma cell lines (A375, Colo829 and HT144) with GI50's below 600 nM. All 3 of these cell lines were b raf mutant. After experiments with all these cell lines, Colo-829 was selected as the preferred cell line for DTP establishment.
(§7) 1.1 Identifying melanoma cell lines sensitive to Vemurafenib • Day 0: 1000 cells/well were plated in 100 μl total volume in a 96 well flat bottom plate. • Day 1: The cells were treated with vemurafenib. The highest concentration in the assay was 20 μM and was diluted 3 fold down with the lowest concentration being 9 nM. • Day 5: 100 μl of cell titer glo was added to each well and the plates read on Envision. The data was plotted using graphpad prism. 1.2 DTP establishment in melanoma cell lines • Day 0: Cells (4.5×10^6 cells/P150 dishes) were plated, 4 plates/cell line. • Day 2: All the cell lines were 60-80% confluent. […] The cells in these plates were counted and ⅛th the numbers were replated in 2 new P150 dishes. […] The cells were counted and the percentage of cells remaining on the Vemurafenib treated dish vs the control dish were identified. […]

Colo829 = experiment: Cell viability assay (cell titer Glo), Colo829; assay type: cell-based; conditions: Homo sapiens, COLO-829, 96 h; Colo829, 4 days of incubation, 8 doses
Procedure: as §6, §7

A375 = experiment: Cell viability assay (cell titer Glo), A375; assay type: cell-based; conditions: Homo sapiens, A-375, 96 h; A375, 4 days of incubation, 8 doses
Procedure: as §6, §7

SW480 cells = experiment: DTP model of CRC cell line SW480 with 5-fluorouracil and SN-38; assay type: cell-based
Procedure: A model for resistance to standard-of-care chemotherapy for colorectal cancer (CRC) was developed by treating CRC cell line SW480 with a combination of 5-fluorouracil and the irinotecan active metabolite SN-38 in a ratio of their relative IC50 values (33 μM 5-FU and 6 ηM SN-38) continuously for 16 days, followed by drug withdrawal. The cells progressively die during this treatment period. The remaining DTP cells constitute approximately 8% of the initial cell population and appear large and non-dividing. After drug withdrawal, cells continue to die for several more days, but then re-initiate proliferation and expand to form DTEP colonies by about 2 weeks in the absence of drugs.

[10] = nuc-RED PC9, various concentrations for 5 days prior to 1 uM Tarceva (erlotinib)

Compound: CPI-455
number of cells following γ-irradiation (PC9 cells [1]; PC9, pretreatment for 5 days, compared to inactive controls): decreases the number of cells following γ-irradiation
development of drug tolerant persisters (PC9 cells [1]; in combination with radiation therapy): capable of inhibiting the development of drug tolerant persisters
H3K4me3 (H3K4me3 [2]): increase H3K4me3
development of drug tolerant persisters (PC9 cells [3]; PC9, in combination with cancer therapy agent, 25 uM for 5 days prior to 1uM Tarceva): capable of inhibiting the development of drug tolerant persisters
cell number (SKBR3 [4]): did not substantially affect cell number
H3K4me3 (H3K4me3 [5]): increase H3K4me3
cell number (PC9 cells [6]): did not substantially affect cell number
H3K4me3 (H3K4me3 [7]): increase H3K4me3
development of drug tolerant persisters (H441 cells): capable of inhibiting the development of drug tolerant persisters
development of drug tolerant persisters (SKBR3 [8]): capable of inhibiting the development of drug tolerant persisters
development of drug tolerant persisters (HCC1954): capable of inhibiting the development of drug tolerant persisters
H3K4me3 (H3K4me3 [9]): increase H3K4me3

GI50 (HT144): < 600 nM
GI50 (Colo829): < 600 nM
GI50 (A375): < 600 nM
Compound: CCCS(=O)(=O)Nc1ccc(F)c(C(=O)c2c[nH]c3ncc(-c4ccc(Cl)cc4)cc23)c1F [vemurafenib, Vemurafenib]

Compound: O=c1[nH]c(Oc2cnn(Cc3ccccc3)c2)nc2ncccc12 [CPI-383]
development of drug tolerant persisters (PC9 cells [3]; [10]): no significant effect

Compound: Nc1ncn([C@@H]2O[C@H](CO)[C@@H](O)[C@H]2O)c(=O)n1 [5-azacytidine]
DTP survival (SW480 cells; 0.2 μM): does not affect DTP survival

Compound: O=c1[nH]c(Oc2cnn(Cc3ccccc3)c2)nc2cnccc12 [CPI-382]
development of drug tolerant persisters (PC9 cells [3]; [10]): capable of reducing the development of drug tolerant persisters

Compound: CC(/C=C/C(=O)NO)=C\[C@@H](C)C(=O)c1ccc(N(C)C)cc1 [Trichostatin A]
DTP survival (SW480 cells; 20 ηM): does not affect DTP survival
